Measured values from ChEMBL document CHEMBL4680170, “Anticancer activity of 4'-phenyl-2,2':6',2″-terpyridines - behind the metal complexation” (Eur J Med Chem, 2020).
Calls of active or inactive are those of the source. No cut-off for these calls is given here.

Tests used:
MCF7 [1] = experiment: Induction of apoptosis in human MCF7 cells assessed as p53 activation at 2.5 uM incubated for 24 hrs by immunoblot analysis; format: functional, cell-based
MCF7 [2] = experiment: Induction of ROS generation in human MCF7 cells at 1 uM measured after 1 hr by CellRox Green reagent/Hoechst 33342 staining based fluorescence analysis; format: functional, cell-based
MCF7 [3] = experiment: Antiproliferative activity against human MCF-7 cells assessed as reduction in cell viability measured after 72 hrs in presence of CdSO4 by MTS assay; format: functional, cell-based; details: MCF7, 72 h
MCF7 [4] = experiment: Induction of apoptosis in human MCF7 cells assessed as decrease in p21 expression at 2.5 uM incubated for 24 hrs by immunoblot analysis; format: functional, cell-based
MCF7 [5] = experiment: Induction of apoptosis in human MCF7 cells assessed as cytochrome c release into cytosol at 2.5 uM incubated for 24 hrs by immunoblot analysis; format: functional, cell-based
MCF7 [6] = experiment: Antiproliferative activity against human MCF-7 cells assessed as reduction in cell viability at 0.1 uM measured after 72 hrs in presence of CdSO4 by MTS assay; format: functional, cell-based
MCF7 [7] = experiment: Antiproliferative activity against human MCF-7 cells assessed as reduction in cell viability measured after 72 hrs by MTS assay; format: functional, cell-based; details: MCF7, 72 h
MCF7 [8] = experiment: Induction of apoptosis in human MCF-7 cells assessed as proportion of late apoptotic cells at 1 uM incubated for 48 hrs by Annexin V Muse cell analyzer based flow cytometry (reference value: 2.3%); format: functional
MCF7 [9] = experiment: Induction of apoptosis in human MCF-7 cells incubated for 48 hrs by Annexin V Muse cell analyzer based flow cytometry; format: functional; details: dose 1-5 µM
MCF7 [10] = experiment: Induction of apoptosis in human MCF-7 cells assessed as proportion of necrotic cells at 2.5 uM incubated for 48 hrs by Annexin V Muse cell analyzer based flow cytometry (reference value: 0.45%); format: functional
MCF7 [11] = experiment: Induction of cell cycle arrest in human MCF-7 cells assessed as accumulation at G0/G1 phase at 5 uM incubated for 24 hrs by Muse cell analyzer based flow cytometry (reference value: 47.4%); format: functional
DNA [12] = experiment: Induction of Escherichia coli supercoiled pUC19 plasmid DNA cleavage assessed as open circular form formation at 50 uM incubated for 60 mins by agarose gel electrophoresis analysis; format: nucleic-acid assay
MCF7 [13] = experiment: Induction of apoptosis in human MCF-7 cells assessed as proportion of necrotic cells at 5 uM incubated for 48 hrs by Annexin V Muse cell analyzer based flow cytometry (reference value: 0.45%); format: functional
MCF7 [14] = experiment: Antiproliferative activity against human MCF-7 cells assessed as reduction in cell viability measured after 72 hrs in presence of CuSO4 by MTS assay; format: functional, cell-based; details: MCF7, 72 h
MCF7 [15] = experiment: Antiproliferative activity against human MCF-7 cells assessed as reduction in cell viability measured after 72 hrs in presence of FeSO4 by MTS assay; format: functional, cell-based; details: MCF7, 72 h
MCF7 [16] = experiment: Induction of cell cycle arrest in human MCF-7 cells assessed as accumulation at S phase at 2.5 uM incubated for 24 hrs by Muse cell analyzer based flow cytometry (reference value: 11.1%); format: functional
MCF7 [17] = experiment: Induction of apoptosis in human MCF-7 cells assessed as proportion of early apoptotic cells at 1 uM incubated for 48 hrs by Annexin V Muse cell analyzer based flow cytometry (reference value: 3.05%); format: functional
MCF7 [18] = experiment: Induction of apoptosis in human MCF-7 cells assessed as proportion of viable cells at 1 uM incubated for 48 hrs by Annexin V Muse cell analyzer based flow cytometry (reference value: 94.2%); format: functional
MCF7 [19] = experiment: Induction of cell cycle arrest in human MCF-7 cells assessed as accumulation at G0/G1 phase at 1 uM incubated for 24 hrs by Muse cell analyzer based flow cytometry (reference value: 47.4%); format: functional
U-251 = experiment: Antiproliferative activity against human U251 cells assessed as reduction in cell viability measured after 72 hrs by MTS assay; format: functional, cell-based; details: U-251, 72 h
DNA [20] = experiment: Induction of Escherichia coli supercoiled pUC19 plasmid DNA cleavage assessed as linear form formation at 50 uM incubated for 60 mins by agarose gel electrophoresis analysis; format: nucleic-acid assay
NHDF = experiment: Cytotoxicity against human NHDF cells assessed as reduction in cell viability measured after 72 hrs by MTS assay; format: cell-based
MCF7 [21] = experiment: Antiproliferative activity against human MCF-7 cells assessed as reduction in cell viability measured after 72 hrs in presence of ZnCl2 by MTS assay; format: functional, cell-based; details: MCF7, 72 h
MCF7 [22] = experiment: Induction of apoptosis in human MCF-7 cells assessed as proportion of viable cells at 5 uM incubated for 48 hrs by Annexin V Muse cell analyzer based flow cytometry (reference value: 94.2%); format: functional
MCF7 [23] = experiment: Antiproliferative activity against human MCF-7 cells assessed as reduction in cell viability at 0.1 uM measured after 72 hrs in presence of FeSO4 by MTS assay; format: functional, cell-based
MCF7 [24] = experiment: Induction of apoptosis in human MCF-7 cells assessed as proportion of viable cells at 2.5 uM incubated for 48 hrs by Annexin V Muse cell analyzer based flow cytometry (reference value: 94.2%); format: functional
MCF7 [25] = experiment: Induction of cell cycle arrest in human MCF-7 cells assessed as accumulation at S phase at 1 uM incubated for 24 hrs by Muse cell analyzer based flow cytometry (reference value: 11.1%); format: functional
MCF7 [26] = experiment: Induction of cell cycle arrest in human MCF-7 cells assessed as accumulation at G2/M phase at 2.5 uM incubated for 24 hrs by Muse cell analyzer based flow cytometry (reference value: 36.9%); format: functional
MCF7 [27] = experiment: Antiproliferative activity against human MCF-7 cells assessed as reduction in cell viability at 0.1 uM measured after 72 hrs in presence of ZnCl2 by MTS assay; format: functional, cell-based
MCF7 [28] = experiment: Induction of apoptosis in human MCF7 cells assessed as late apoptotic cells by measuring condensed and fragmented nuclei formation at 5 uM incubated for 24 hrs by AO/EB staining based fluorescence microscopy; format: functional, cell-based
MCF7 [29] = experiment: Potency index, ratio of doxorubicin IC50 to test compound IC50 for anticancer activity against human MCF7 cells measured after 72 hrs by MTS assay; format: functional
MCF7 [30] = experiment: Induction of apoptosis in human MCF-7 cells assessed as proportion of late apoptotic cells at 2.5 uM incubated for 48 hrs by Annexin V Muse cell analyzer based flow cytometry (reference value: 2.3%); format: functional
MCF7 [31] = experiment: Antiproliferative activity against human MCF-7 cells assessed as reduction in cell viability measured after 72 hrs in presence of FeCl3 by MTS assay; format: functional, cell-based; details: MCF7, 72 h
MCF7 [32] = experiment: Induction of cell cycle arrest in human MCF-7 cells assessed as increase in cell accumulation at G0/G1 phase incubated for 24 hrs by Muse cell analyzer based flow cytometry; format: functional; details: dose 1-5 µM
MCF7 [33] = experiment: Induction of ROS generation in human MCF7 cells at 1 uM measured after 24 hrs by CellRox Green reagent/Hoechst 33342 staining based fluorescence analysis relative to control; format: functional
HCT-116 = experiment: Antiproliferative activity against human HCT 116 cells assessed as reduction in cell viability measured after 72 hrs by MTS assay; format: functional, cell-based; details: HCT-116, 72 h
MCF7 [34] = experiment: Induction of cell cycle arrest in human MCF-7 cells assessed as accumulation at S phase at 5 uM incubated for 24 hrs by Muse cell analyzer based flow cytometry (reference value: 11.1%); format: functional
PANC-1 = experiment: Antiproliferative activity against human PANC-1 cells assessed as reduction in cell viability measured after 72 hrs by MTS assay; format: functional, cell-based; details: PANC-1, 72 h
MCF7 [35] = experiment: Induction of apoptosis in human MCF7 cells assessed as increase in AIP protein expression at 2.5 uM incubated for 24 hrs by immunoblot analysis; format: functional, cell-based
MCF7 [36] = experiment: Induction of apoptosis in human MCF-7 cells assessed as proportion of early apoptotic cells at 5 uM incubated for 48 hrs by Annexin V Muse cell analyzer based flow cytometry (reference value: 3.05%); format: functional
[37] = Drug uptake in human MCF7 cells mitochondria at 25 uM incubated for 2 hrs by MitoTracker Orange/LysoTracker staining based fluorescence microscopy; format: ADME; details: mcf7, 2 h
MCF7 [38] = experiment: Induction of cell cycle arrest in human MCF-7 cells assessed as accumulation at G2/M phase at 5 uM incubated for 24 hrs by Muse cell analyzer based flow cytometry (reference value: 36.9%); format: functional
MCF7 [39] = experiment: Induction of apoptosis in human MCF-7 cells assessed as proportion of late apoptotic cells at 5 uM incubated for 48 hrs by Annexin V Muse cell analyzer based flow cytometry (reference value: 2.3%); format: functional
MCF7 [40] = experiment: Induction of apoptosis in human MCF-7 cells assessed as proportion of early apoptotic cells at 2.5 uM incubated for 48 hrs by Annexin V Muse cell analyzer based flow cytometry (reference value: 3.05%); format: functional
Calf thymus DNA [41] = experiment: Binding affinity to calf thymus DNA assessed as DNA intercalation by measuring hypochromic shift incubated for 1.5 hrs by spectrophotometric analysis; format: tissue-based; details: Bos taurus
MCF7 [42] = experiment: Induction of cell cycle arrest in human MCF-7 cells assessed as accumulation at G2/M phase at 1 uM incubated for 24 hrs by Muse cell analyzer based flow cytometry (reference value: 36.9%); format: functional
MCF7 [43] = experiment: Antiproliferative activity against human MCF-7 cells assessed as reduction in cell viability at 0.1 uM measured after 72 hrs in presence of FeCl3 by MTS assay; format: functional, cell-based
A549 = experiment: Antiproliferative activity against human A549 cells assessed as reduction in cell viability measured after 72 hrs by MTS assay; format: functional, cell-based; details: A549, 72 h
Calf thymus DNA [44] = experiment: Binding affinity to calf thymus DNA assessed as DNA intercalation by measuring bathochromic shift incubated for 1.5 hrs by spectrophotometric analysis; format: tissue-based; details: Bos taurus
MCF7 [45] = experiment: Induction of apoptosis in human MCF7 cells assessed as early apoptotic cells by measuring chromatin condensation and nuclear fragmentation at 5 uM incubated for 24 hrs by AO/EB staining based fluorescence microscopy; format: functional, cell-based
MCF7 [46] = experiment: Antiproliferative activity against human MCF-7 cells assessed as reduction in cell viability at 0.1 uM measured after 72 hrs in presence of CuSO4 by MTS assay; format: functional, cell-based
MCF7 [47] = experiment: Induction of cell cycle arrest in human MCF-7 cells assessed as accumulation at G0/G1 phase at 2.5 uM incubated for 24 hrs by Muse cell analyzer based flow cytometry (reference value: 47.4%); format: functional
MCF7 [48] = experiment: Induction of apoptosis in human MCF-7 cells assessed as proportion of necrotic cells at 1 uM incubated for 48 hrs by Annexin V Muse cell analyzer based flow cytometry (reference value: 0.45%); format: functional
MCF7 [49] = experiment: Potency index, ratio of oxaliplatin IC50 to test compound IC50 for anticancer activity against human MCF7 cells measured after 72 hrs by MTS assay; format: functional

## CCCCCCCCCCn1cc(-c2ccc(-c3cc(-c4ccccn4)nc(-c4ccccn4)c3)cc2)nn1
MCF7 [1]
  Activity: inactive
MCF7 [2]
  Activity: Active
MCF7 [3]
  IC50: 1000 nM
MCF7 [4]
  Activity: Active
MCF7 [5]
  Activity: Active
MCF7 [6]
  Activity: Active
MCF7 [7]
  IC50: 40 nM
MCF7 [8]
  Activity: 8.55%
MCF7 [9]
  Activity: Dose-dependent effect
MCF7 [10]
  Activity: 4.9%
MCF7 [11]
  Activity: 66.2%
DNA [12]
  Activity: Active
MCF7 [13]
  Activity: 6.9%
MCF7 [14]
  IC50: 39 nM
MCF7 [15]
  IC50: 1000 nM
MCF7 [16]
  Activity: 13.7%
MCF7 [17]
  Activity: 3.45%
MCF7 [18]
  Activity: 79.1%
MCF7 [19]
  Activity: 45.5%
U-251
  IC50: 140 nM
DNA [20]
  Activity: Active
NHDF
  IC50: 20800 nM
MCF7 [21]
  IC50: 1000 nM
MCF7 [22]
  Activity: 47.6%
MCF7 [23]
  Activity: Active
MCF7 [24]
  Activity: 69.9%
MCF7 [25]
  Activity: 16.3%
MCF7 [26]
  Activity: 25.2%
MCF7 [27]
  Activity: Active
MCF7 [28]
  Activity: Active
MCF7 [29]
  Ratio IC50: 10
MCF7 [30]
  Activity: 16.25%
MCF7 [31]
  IC50: 1000 nM
MCF7 [32]
  Activity: Dose-dependent effect
MCF7 [33]
  Activity: 140%
HCT-116
  IC50: 270 nM
MCF7 [34]
  Activity: 14.3%
PANC-1; read-out: IC50
  IC50: 440 nM
MCF7 [35]
  Activity: Active
MCF7 [36]
  Activity: 30.2%
[37]
  Drug uptake: Active
MCF7 [38]
  Activity: 24%
MCF7 [39]
  Activity: 15.3%
MCF7 [40]
  Activity: 8.95%
Calf thymus DNA [41]
  Activity: 18.2%
MCF7 [42]
  Activity: 34.3%
MCF7 [43]
  Activity: Active
A549
  IC50: 750 nM
Calf thymus DNA [44]
  Activity: Active
MCF7 [45]
  Activity: Active
MCF7 [46]
  Activity: Active
MCF7 [47]
  Activity: 57.4%
MCF7 [48]
  Activity: 8.9%
MCF7 [49]
  Ratio IC50: 26

## COc1cccc2c1C(=O)c1c(O)c3c(c(O)c1C2=O)C[C@@](O)(C(=O)CO)C[C@@H]3O[C@H]1C[C@H](N)[C@H](O)[C@H](C)O1 [DOXORUBICIN]
MCF7 [7]
  IC50: 410 nM
U-251
  IC50: 50 nM
PANC-1
  IC50: 730 nM
Calf thymus DNA [41]
  Activity: 34.2%
A549
  IC50: 1060 nM
